Data from patent US8076487B2, “Pyridone derivative and herbicide” (Kumiai Chemical Industry Co., Ltd., priority 2006, dated 2011).

Tests used:
Format in all cases: in vivo
[1] = system: Japanese bulrush (Scirpus juncoides Roxb.); experiment: Test Example 1: herbicidal effect by soil application to paddy field; conditions: paddy field soil application; active ingredient 1,000 g per 1 hectare; wettable powder added dropwise to water surface the day after sowing; examined on the 21st day after application
Method in brief: (§1)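 Plants were sown in flooded (3 cm) paddy soil and evaluated for herbicidal effect 21 days after soil application in a greenhouse.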

[2] = system: early watergrass (Echinochloa oryzicola Vasing); experiment: as above; conditions: paddy field soil application; active ingredient 1,000 g per 1 hectare; wettable powder added dropwise to water surface the day after sowing; examined on the 21st day after application
Method in brief: as §1

[3] = system: heartshape false pickerelweed (Monochoria vaginalis (Burm.f.) C.Presl); experiment: as above; conditions: paddy field soil application; active ingredient 1,000 g per 1 hectare; wettable powder added dropwise to water surface the day after sowing; examined on the 21st day after application
Method in brief: as §1

[4] = system: barnyardgrass (Echinochloa crus-galli (L.) P. Beauv. var. crus-galli); experiment: Test Example 3: herbicidal effect by application to upland field (foliage treatment); conditions: 14th day after application; for herbicidal effect, Barnyardgrass: foliage treatment, 1,000 g active ingredient per 1 hectare, greenhouse; for herbicidal effect (index), Barnyardgrass: foliage treatment, plants grown two weeks, 1,000 g active ingredient per hectare
Procedure: (§2) [table] Test Example 3 Test on Herbicidal Effect by Application to Upland Field In a 80 cm2 plastic pot, field soil was filled. Seeds of barnyardgrass (Echinochloa crus-galli (L.) P. Beauv. var. crus-galli), green foxtail (Setaria viridis (L.) P. Beauv.), velvetleaf (Abutilon theophrasti medicus), and slender amaranth (Amaranthus viridis L.) were sown and allowed to grow for two weeks in a greenhouse. Thereafter, the wettable powder prepared according to Formulation Example 1 was diluted in water and a 1,000 liter equivalent amount per 1 hectare so that the active ingredient becomes 1,000 g per 1 hectare was sprayed using a small sprayer from a top of the plants through its entire body for foliage treatment. Then, on the 14th day after the application to the plants grew in a greenhouse, the herbicidal effect was examined in accordance with a standard shown in Table 34.

[5] = system: green foxtail (Setaria viridis (L.) P. Beauv.); experiment: as above; conditions: 14th day after application; for herbicidal effect, Green Foxtail: foliage treatment, 1,000 g active ingredient per 1 hectare, greenhouse; for herbicidal effect (index), Green Foxtail: foliage treatment, plants grown two weeks, 1,000 g active ingredient per hectare
Procedure: as §2

[6] = system: slender amaranth (Amaranthus viridis L.); experiment: as above; conditions: 14th day after application; for herbicidal effect, Slender Amaranth: foliage treatment, 1,000 g active ingredient per 1 hectare, greenhouse; for herbicidal effect (index), Slender Amaranth: foliage treatment, plants grown two weeks, 1,000 g active ingredient per hectare
Procedure: as §2

[7] = system: velvetleaf (Abutilon theophrasti medicus); experiment: as above; conditions: 14th day after application; for herbicidal effect, Velvetleaf: foliage treatment, 1,000 g active ingredient per 1 hectare, greenhouse; for herbicidal effect (index), Velvetleaf: foliage treatment, plants grown two weeks, 1,000 g active ingredient per hectare
Procedure: as §2

Row | SMILES | herbicidal effect, Scirpus juncoides Roxb. [1] | herbicidal effect, Echinochloa oryzicola Vasing [2] | herbicidal effect, Monochoria vaginalis (Burm. f.) C. Presl [3] | herbicidal effect, Barnyardgrass [4] | herbicidal effect, Green Foxtail [5] | herbicidal effect, Slender Amaranth [6] | herbicidal effect, Velvetleaf [7] | herbicidal effect (index), Barnyardgrass [4] | herbicidal effect (index), Green Foxtail [5] | herbicidal effect (index), Slender Amaranth [6] | herbicidal effect (index), Velvetleaf [7]
1 | CCn1c(C(F)F)ccc(C(=O)C2=C(O)CCCC2=O)c1=O [I-222] | 5 (90% or more of herbicidal effect and crop phytotoxicity) | 5 (90% or more of herbicidal effect and crop phytotoxicity) | 5 (90% or more of herbicidal effect and crop phytotoxicity) | 5 (90% or more of herbicidal effect and crop phytotoxicity) | 4 (70 to less than 90% of herbicidal effect and crop phytotoxicity) | 5 (90% or more of herbicidal effect and crop phytotoxicity) | 5 (90% or more of herbicidal effect and crop phytotoxicity) |  |  |  | 
2 | CC(Cn1c(C(F)(F)F)ccc(C(=O)C2=C(O)CCCC2=O)c1=O)OCc1ccccc1 (stereo not shown) [I-43] | 5 (90% or more of herbicidal effect and crop phytotoxicity) | 5 (90% or more of herbicidal effect and crop phytotoxicity) | 4 (70 to less than 90% of herbicidal effect and crop phytotoxicity) |  |  |  |  | 5 (90% or more of herbicidal effect and crop phytotoxicity) | 4 (70 to less than 90% of herbicidal effect and crop phytotoxicity) | 5 (90% or more of herbicidal effect and crop phytotoxicity) | 5 (90% or more of herbicidal effect and crop phytotoxicity)
3 | Cn1ncc(C(=O)c2ccc(C(F)(F)F)n(CC3CCCO3)c2=O)c1OCc1c(F)cccc1F (stereo not shown) [IV-136] | 5 (90% or more of herbicidal effect and crop phytotoxicity) | 5 (90% or more of herbicidal effect and crop phytotoxicity) | 5 (90% or more of herbicidal effect and crop phytotoxicity) | 4 (70 to less than 90% of herbicidal effect and crop phytotoxicity) | 4 (70 to less than 90% of herbicidal effect and crop phytotoxicity) | 5 (90% or more of herbicidal effect and crop phytotoxicity) | 4 (70 to less than 90% of herbicidal effect and crop phytotoxicity) |  |  |  | 
4 | COCCCn1c(C(F)(F)F)ccc(C(=O)C2=C(O)CCCC2=O)c1=O [I-42] | 5 (90% or more of herbicidal effect and crop phytotoxicity) | 5 (90% or more of herbicidal effect and crop phytotoxicity) | 5 (90% or more of herbicidal effect and crop phytotoxicity) |  |  |  |  | 5 (90% or more of herbicidal effect and crop phytotoxicity) | 5 (90% or more of herbicidal effect and crop phytotoxicity) | 5 (90% or more of herbicidal effect and crop phytotoxicity) | 5 (90% or more of herbicidal effect and crop phytotoxicity)
5 | CC(C)=CCCn1c(C(F)(F)F)ccc(C(=O)C2=C(O)CCCC2=O)c1=O [I-13] | 5 (90% or more of herbicidal effect and crop phytotoxicity) | 5 (90% or more of herbicidal effect and crop phytotoxicity) | 5 (90% or more of herbicidal effect and crop phytotoxicity) |  |  |  |  | 5 (90% or more of herbicidal effect and crop phytotoxicity) | 5 (90% or more of herbicidal effect and crop phytotoxicity) | 5 (90% or more of herbicidal effect and crop phytotoxicity) | 5 (90% or more of herbicidal effect and crop phytotoxicity)
6 | O=C1CCCC(O)=C1C(=O)c1ccc(C(F)(F)F)n(CSC2CCCCC2)c1=O [I-61] | 4 (70 to less than 90% of herbicidal effect and crop phytotoxicity) | 5 (90% or more of herbicidal effect and crop phytotoxicity) | 5 (90% or more of herbicidal effect and crop phytotoxicity) |  |  |  |  | 5 (90% or more of herbicidal effect and crop phytotoxicity) | 4 (70 to less than 90% of herbicidal effect and crop phytotoxicity) | 5 (90% or more of herbicidal effect and crop phytotoxicity) | 5 (90% or more of herbicidal effect and crop phytotoxicity)
7 | Cn1ncc(C(=O)c2ccc(C(F)(F)F)n(-c3ccc(OC(F)(F)F)cc3)c2=O)c1O [IV-67] | 5 (90% or more of herbicidal effect and crop phytotoxicity) | 5 (90% or more of herbicidal effect and crop phytotoxicity) | 5 (90% or more of herbicidal effect and crop phytotoxicity) | 4 (70 to less than 90% of herbicidal effect and crop phytotoxicity) | 4 (70 to less than 90% of herbicidal effect and crop phytotoxicity) | 5 (90% or more of herbicidal effect and crop phytotoxicity) | 5 (90% or more of herbicidal effect and crop phytotoxicity) |  |  |  | 
8 | O=C1CCCC(O)=C1C(=O)c1ccc(C(F)(F)F)n(-c2c(F)cccc2F)c1=O [I-104] | 5 (90% or more of herbicidal effect and crop phytotoxicity) | 5 (90% or more of herbicidal effect and crop phytotoxicity) | 5 (90% or more of herbicidal effect and crop phytotoxicity) |  |  |  |  | 5 (90% or more of herbicidal effect and crop phytotoxicity) | 4 (70 to less than 90% of herbicidal effect and crop phytotoxicity) | 5 (90% or more of herbicidal effect and crop phytotoxicity) | 5 (90% or more of herbicidal effect and crop phytotoxicity)
9 | COc1ccc(-n2c(C(F)(F)F)ccc(C(=O)C3=C(O)CCCC3=O)c2=O)cc1 [I-78] | 5 (90% or more of herbicidal effect and crop phytotoxicity) | 5 (90% or more of herbicidal effect and crop phytotoxicity) | 5 (90% or more of herbicidal effect and crop phytotoxicity) |  |  |  |  | 5 (90% or more of herbicidal effect and crop phytotoxicity) | 5 (90% or more of herbicidal effect and crop phytotoxicity) | 5 (90% or more of herbicidal effect and crop phytotoxicity) | 5 (90% or more of herbicidal effect and crop phytotoxicity)
10 | COc1ccc(-n2c(C(F)(F)F)ccc(C(=O)c3cnn(C)c3O)c2=O)cc1OC [IV-77] | 5 (90% or more of herbicidal effect and crop phytotoxicity) | 5 (90% or more of herbicidal effect and crop phytotoxicity) | 5 (90% or more of herbicidal effect and crop phytotoxicity) | 5 (90% or more of herbicidal effect and crop phytotoxicity) | 3 (50 to less than 70% of herbicidal effect and crop phytotoxicity) | 5 (90% or more of herbicidal effect and crop phytotoxicity) | 5 (90% or more of herbicidal effect and crop phytotoxicity) |  |  |  | 
11 | CCCS(=O)(=O)Cc1c(Br)cc(C(=O)C2=C(O)CCCC2=O)c(=O)n1-c1ccccc1 [I-237] |  |  |  | 5 (90% or more of herbicidal effect and crop phytotoxicity) | 4 (70 to less than 90% of herbicidal effect and crop phytotoxicity) | 5 (90% or more of herbicidal effect and crop phytotoxicity) | 5 (90% or more of herbicidal effect and crop phytotoxicity) |  |  |  | 
12 | CCSCn1c(C(F)(F)F)ccc(C(=O)C2=C(O)C3CCC(C3)C2=O)c1=O (stereo not shown) [III-26] |  |  |  | 5 (90% or more of herbicidal effect and crop phytotoxicity) | 5 (90% or more of herbicidal effect and crop phytotoxicity) | 5 (90% or more of herbicidal effect and crop phytotoxicity) | 5 (90% or more of herbicidal effect and crop phytotoxicity) |  |  |  | 
13 | CC[S+]([O-])Cn1c(C(F)(F)F)ccc(C(=O)C2=C(O)C3CCC(C3)C2=O)c1=O (stereo not shown) [III-27] |  |  |  | 5 (90% or more of herbicidal effect and crop phytotoxicity) | 5 (90% or more of herbicidal effect and crop phytotoxicity) | 5 (90% or more of herbicidal effect and crop phytotoxicity) | 5 (90% or more of herbicidal effect and crop phytotoxicity) |  |  |  | 
